Reference: ChEMBL document CHEMBL1141898, “Halogenated and isosteric cytisine derivatives with increased affinity and functional activity at nicotinic acetylcholine receptors” (Bioorg Med Chem Lett, 2005)

Experiments:
[1] = molecular target: T1, Acetylcholine receptor; alpha1/beta1/delta/gamma (Homo sapiens, UniProt P02708+P07510+P11230+Q07001); assay: Change in membrane potential in TE-671 cells expressing acetylcholine neuromuscular receptors; assay type: functional, cell-based
[2] = molecular target: T2, Neuronal acetylcholine receptor; alpha4/beta2 (Homo sapiens, UniProt P17787+P43681); assay: Change in membrane potential in K-177 cells expressing acetylcholine central neuronal receptor alpha4-beta2 subunits; assay type: functional, cell-based
T2 sequence (P17787 whole entry): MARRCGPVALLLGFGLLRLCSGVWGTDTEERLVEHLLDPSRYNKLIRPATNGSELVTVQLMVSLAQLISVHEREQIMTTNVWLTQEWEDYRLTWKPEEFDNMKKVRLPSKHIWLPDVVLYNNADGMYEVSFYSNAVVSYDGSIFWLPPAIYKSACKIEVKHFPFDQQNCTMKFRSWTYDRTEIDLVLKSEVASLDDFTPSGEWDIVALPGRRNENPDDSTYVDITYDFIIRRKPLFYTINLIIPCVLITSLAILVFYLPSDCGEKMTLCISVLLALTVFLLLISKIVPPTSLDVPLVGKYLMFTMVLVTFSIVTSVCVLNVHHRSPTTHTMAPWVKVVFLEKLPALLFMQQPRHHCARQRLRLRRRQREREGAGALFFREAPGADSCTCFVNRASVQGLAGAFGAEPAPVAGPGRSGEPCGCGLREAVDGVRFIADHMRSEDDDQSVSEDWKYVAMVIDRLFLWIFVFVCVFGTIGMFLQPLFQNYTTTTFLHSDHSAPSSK
T2 sequence (P43681 whole entry): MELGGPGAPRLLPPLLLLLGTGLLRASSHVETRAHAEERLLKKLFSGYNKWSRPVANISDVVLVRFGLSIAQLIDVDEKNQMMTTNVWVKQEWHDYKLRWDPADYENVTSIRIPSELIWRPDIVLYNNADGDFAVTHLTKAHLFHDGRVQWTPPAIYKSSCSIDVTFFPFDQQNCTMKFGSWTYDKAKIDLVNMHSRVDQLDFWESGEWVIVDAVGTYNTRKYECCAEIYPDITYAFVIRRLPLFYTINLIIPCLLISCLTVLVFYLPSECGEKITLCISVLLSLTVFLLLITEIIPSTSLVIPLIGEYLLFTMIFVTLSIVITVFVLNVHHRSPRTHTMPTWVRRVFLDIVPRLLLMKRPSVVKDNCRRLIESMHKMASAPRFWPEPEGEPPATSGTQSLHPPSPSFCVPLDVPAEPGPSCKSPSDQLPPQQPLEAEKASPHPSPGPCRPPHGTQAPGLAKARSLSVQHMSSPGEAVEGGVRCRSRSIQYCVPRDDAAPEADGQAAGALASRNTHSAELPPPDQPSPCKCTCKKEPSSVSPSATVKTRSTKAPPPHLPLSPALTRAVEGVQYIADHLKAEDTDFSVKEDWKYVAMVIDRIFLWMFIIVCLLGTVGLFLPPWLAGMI

[3] = molecular target: T1, Acetylcholine receptor; alpha1/beta1/delta/gamma; assay: Percentage efficacy in TE671 cells expressing acetylcholine neuromuscular receptor as change in membrane potential; assay type: functional, cell-based; conditions: TE-671
[4] = molecular target: Neuronal acetylcholine receptor; alpha4/beta2 (Rattus norvegicus) (UniProt P09483+P12390); assay: Binding affinity (Ki) for rat brain nicotinic receptors […] alpha-4 and beta2 subunits versus 0.5 nM [3H](1)-epibatidine
[5] = molecular target: T2, Neuronal acetylcholine receptor; alpha4/beta2; assay: Percentage efficacy in K-177 cells expressing acetylcholine central neuronal receptor type alpha-4 beta2 subunits as change in membrane potential; assay type: functional, cell-based
[6] = molecular target: Neuronal acetylcholine receptor; alpha3/beta4 (Rattus norvegicus, UniProt P04757+P12392); assay: Effective concentration in KXalpha-3-beta-4R2 cells expressing rat nicotinic acetylcholine receptor alpha3-beta4 subunits; assay type: functional, cell-based
Neuronal acetylcholine receptor; alpha3/beta4, sequence (P04757 whole entry): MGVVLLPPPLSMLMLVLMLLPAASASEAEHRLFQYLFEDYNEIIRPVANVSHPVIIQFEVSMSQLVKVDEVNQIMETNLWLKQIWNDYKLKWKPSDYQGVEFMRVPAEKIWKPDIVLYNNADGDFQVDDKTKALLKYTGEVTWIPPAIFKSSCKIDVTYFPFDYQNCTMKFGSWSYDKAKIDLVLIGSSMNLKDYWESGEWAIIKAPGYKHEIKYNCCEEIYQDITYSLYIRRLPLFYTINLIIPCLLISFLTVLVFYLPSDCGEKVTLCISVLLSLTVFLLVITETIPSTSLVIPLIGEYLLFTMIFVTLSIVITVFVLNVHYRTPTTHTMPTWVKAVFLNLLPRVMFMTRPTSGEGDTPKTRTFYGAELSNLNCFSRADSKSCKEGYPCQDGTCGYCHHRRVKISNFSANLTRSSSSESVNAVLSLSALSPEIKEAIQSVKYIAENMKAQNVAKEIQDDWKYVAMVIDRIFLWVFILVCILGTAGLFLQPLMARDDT
Neuronal acetylcholine receptor; alpha3/beta4, sequence (P12392 whole entry): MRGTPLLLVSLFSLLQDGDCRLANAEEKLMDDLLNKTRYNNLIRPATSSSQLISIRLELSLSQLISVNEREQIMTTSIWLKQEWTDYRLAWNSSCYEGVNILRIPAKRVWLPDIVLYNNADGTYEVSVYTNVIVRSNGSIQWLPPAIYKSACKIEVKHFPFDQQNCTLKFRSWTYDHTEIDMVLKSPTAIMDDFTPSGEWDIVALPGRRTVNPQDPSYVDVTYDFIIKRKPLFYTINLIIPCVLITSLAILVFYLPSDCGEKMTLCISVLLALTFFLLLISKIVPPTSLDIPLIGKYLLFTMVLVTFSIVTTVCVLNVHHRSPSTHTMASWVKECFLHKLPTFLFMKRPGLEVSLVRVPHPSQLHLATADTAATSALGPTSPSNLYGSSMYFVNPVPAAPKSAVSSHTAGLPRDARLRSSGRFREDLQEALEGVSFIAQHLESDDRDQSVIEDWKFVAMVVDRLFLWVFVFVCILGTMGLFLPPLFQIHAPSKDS

[7] = molecular target: T3, Neuronal acetylcholine receptor; alpha3/beta4 (Rattus norvegicus) (UniProt P04757+P12392); assay: Binding affinity (Ki) for rat nicotinic acetylcholine receptor alpha3-beta4 subunits versus 0.5 nM [3H](1)-epibatidine; assay type: protein-complex assay
[8] = molecular target: T3, Neuronal acetylcholine receptor; alpha3/beta4 (Rattus norvegicus); assay: Percentage efficacy in KXalpha-3-beta-4R2 cells expressing rat nicotinic acetylcholine receptor alpha-3 beta4 subunits relative to (1)-epibatidine; assay type: functional, cell-based

T1 sequence (P02708 whole entry): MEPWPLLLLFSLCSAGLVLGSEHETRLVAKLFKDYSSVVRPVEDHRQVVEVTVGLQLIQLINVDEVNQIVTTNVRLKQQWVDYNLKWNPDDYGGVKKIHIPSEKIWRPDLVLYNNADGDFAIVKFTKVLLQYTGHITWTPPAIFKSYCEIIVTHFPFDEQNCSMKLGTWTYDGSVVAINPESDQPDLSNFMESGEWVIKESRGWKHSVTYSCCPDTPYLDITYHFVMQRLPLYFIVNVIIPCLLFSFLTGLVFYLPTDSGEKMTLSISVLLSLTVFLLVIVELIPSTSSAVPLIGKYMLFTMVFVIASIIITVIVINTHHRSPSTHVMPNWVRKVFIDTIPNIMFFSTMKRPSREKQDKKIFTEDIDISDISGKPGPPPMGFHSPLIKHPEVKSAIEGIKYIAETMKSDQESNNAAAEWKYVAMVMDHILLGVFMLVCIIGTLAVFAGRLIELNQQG
T1 sequence (P07510 whole entry): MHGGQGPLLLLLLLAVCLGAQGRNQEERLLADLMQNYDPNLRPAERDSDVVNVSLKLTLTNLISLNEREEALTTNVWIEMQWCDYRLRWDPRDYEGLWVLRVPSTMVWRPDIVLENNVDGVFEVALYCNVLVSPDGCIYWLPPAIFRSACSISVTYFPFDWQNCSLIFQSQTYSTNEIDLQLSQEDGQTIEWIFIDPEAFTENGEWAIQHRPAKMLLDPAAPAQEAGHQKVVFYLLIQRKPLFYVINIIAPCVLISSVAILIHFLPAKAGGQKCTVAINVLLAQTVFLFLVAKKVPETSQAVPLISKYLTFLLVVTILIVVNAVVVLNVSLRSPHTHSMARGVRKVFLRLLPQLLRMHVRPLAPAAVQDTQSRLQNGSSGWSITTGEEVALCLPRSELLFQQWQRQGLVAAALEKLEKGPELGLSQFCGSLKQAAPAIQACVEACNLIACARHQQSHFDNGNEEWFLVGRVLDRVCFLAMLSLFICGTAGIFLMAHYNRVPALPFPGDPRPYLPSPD
T1 sequence (P11230 whole entry): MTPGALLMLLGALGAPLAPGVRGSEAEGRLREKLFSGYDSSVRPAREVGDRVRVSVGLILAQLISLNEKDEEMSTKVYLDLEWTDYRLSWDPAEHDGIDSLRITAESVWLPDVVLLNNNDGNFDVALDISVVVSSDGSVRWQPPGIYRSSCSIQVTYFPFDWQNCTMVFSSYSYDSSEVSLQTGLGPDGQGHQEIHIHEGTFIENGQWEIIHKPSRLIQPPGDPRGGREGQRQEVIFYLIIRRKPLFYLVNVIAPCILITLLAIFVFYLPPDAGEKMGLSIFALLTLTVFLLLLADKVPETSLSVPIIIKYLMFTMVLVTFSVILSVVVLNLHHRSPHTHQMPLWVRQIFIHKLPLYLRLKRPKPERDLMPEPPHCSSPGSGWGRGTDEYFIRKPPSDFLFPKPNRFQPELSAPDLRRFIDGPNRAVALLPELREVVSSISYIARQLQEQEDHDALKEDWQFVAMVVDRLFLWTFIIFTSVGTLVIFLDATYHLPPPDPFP
T1 sequence (Q07001 whole entry): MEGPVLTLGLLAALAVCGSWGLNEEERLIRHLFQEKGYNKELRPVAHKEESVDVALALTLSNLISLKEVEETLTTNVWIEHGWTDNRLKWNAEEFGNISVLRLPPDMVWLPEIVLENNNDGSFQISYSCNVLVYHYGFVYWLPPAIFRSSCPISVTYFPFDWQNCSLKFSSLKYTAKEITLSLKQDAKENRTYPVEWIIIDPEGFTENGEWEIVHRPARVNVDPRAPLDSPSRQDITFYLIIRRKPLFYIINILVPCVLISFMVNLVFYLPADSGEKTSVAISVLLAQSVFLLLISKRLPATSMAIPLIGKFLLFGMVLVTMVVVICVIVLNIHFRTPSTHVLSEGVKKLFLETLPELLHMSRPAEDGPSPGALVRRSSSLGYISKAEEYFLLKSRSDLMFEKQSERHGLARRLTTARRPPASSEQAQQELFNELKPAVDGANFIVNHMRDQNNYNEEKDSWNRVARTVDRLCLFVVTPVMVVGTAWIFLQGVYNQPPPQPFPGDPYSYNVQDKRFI

SMILES	EC50 [1] [nM]	EC50 [2] [nM]	Efficacy [3] [%]	Affinity [4] [nM]	Efficacy [5] [%]	EC50 [6] [nM]	Affinity [7] [nM]	Efficacy [8] [%]
O=c1c(Br)ccc2n1CC1CNCC2C1 (configuration not stated)	31	0.05	59	0.01	85	0.88	7.5	74
S=c1cccc2n1CC1CNCC2C1 (configuration not stated)	> 100	2.2	< 10	0.832	28	> 100	27000	10
O=c1c(Br)cc(Br)c2n1CC1CNCC2C1 (configuration not stated)	> 100	> 100	< 10	10.8	23	> 100	45000	< 10
O=c1ccc(Cl)c2n1CC1CNCC2C1 (configuration not stated)	> 100	4	< 10	2.5	58	> 100	3900	< 10
O=c1c(I)ccc2n1CC1CNCC2C1 (configuration not stated)	45	0.036	46	0.017	92	0.55	7.4	78
O=c1c(I)cc(I)c2n1CC1CNCC2C1 (configuration not stated)	> 100	42	< 10	0.52	42	> 100000	4200	< 10
O=c1ccc(Br)c2n1CC1CNCC2C1 (configuration not stated)	> 100	1.1	< 10	0.308	70	39	380	
O=c1cccc2n1C[C@@H]1CNC[C@H]2C1 [CYTISINICLINE]	11	0.42	55	0.124	59	25	220	62
O=c1c(Cl)ccc2n1CC1CNCC2C1 (configuration not stated)	28	0.11	53	0.022	72	5.1	18	71
C[N+]1(C)CC2CC(C1)c1cccc(=O)n1C2 (configuration not stated)	37	41	60	0.238	70	> 100	1500	29
Clc1ccc(C2CC3CCC2N3)cn1 (configuration not stated) [EPIBATIDINE]	0.053		100	0.0072	100		0.51	
O=c1c(Cl)cc(Cl)c2n1CC1CNCC2C1 (configuration not stated)	> 100	> 100	23	2.5	20	> 100	39000	< 10
